From PubChem BioAssay AID256 (DTP/NCI, 2004)
Toxic doses and inconclusive results are not listed. Rule for the calls: active = survival T/C of 150% or more; inactive = T/C below 125% in these data.

System: CD2F1 mice, L1210 leukemia ip, survival T/C
Assay: NCI In Vivo Anticancer Drug Screen. Data for tumor model L1210 Leukemia (intraperitoneal) in CD2F1 (CDF1) mice
Settings: endpoint: mean survival time, higher = longer survival
Summary of the method: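 Tumor-bearing mice (transplanted tumor) were split into treated and vehicle control groups, and the measured endpoint of each treated group was divided by that of its vehicle controls.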

[1] = dose: 100.0 mg/kg/injection, schedule: Q04DX003 (ip), vehicle: saline with Tween-80
[2] = dose: 200.0 mg/kg/injection, schedule: Q04DX003 (ip), vehicle: saline with Tween-80
[3] = dose: 400.0 mg/kg/injection, schedule: Q04DX003 (ip), vehicle: saline with Tween-80
[4] = dose: 50.0 mg/kg/injection, schedule: Q01DX009 (ip), vehicle: saline with Tween-80
[5] = dose: 100.0 mg/kg/injection, schedule: Q01DX009 (ip), vehicle: saline with Tween-80
[6] = dose: 200.0 mg/kg/injection, schedule: Q01DX009 (ip), vehicle: saline with Tween-80

Measured: T/C

COC(=O)C(C(=O)c1ccccc1)c1ccccc1 (stereo not given)
inactive: dose: 100.0 mg/kg/injection, schedule: Q01DX001 (ip), vehicle: saline with Tween-80 94 % of control | dose: 200.0 mg/kg/injection, schedule: Q01DX001 (ip), vehicle: saline with Tween-80 97 % of control | dose: 400.0 mg/kg/injection, schedule: Q01DX001 (ip), vehicle: saline with Tween-80 90 % of control

N/C(CCSc1ccccc1N=Cc1ccccc1O)=N/O
inactive: dose: 3.13 mg/kg/injection, schedule: Q01DX009 (ip), vehicle: olive oil, sesame oil, peanut oil 95 % of control | dose: 6.25 mg/kg/injection, schedule: Q01DX009 (ip), vehicle: olive oil, sesame oil, peanut oil 94 % of control | dose: 12.5 mg/kg/injection, schedule: Q01DX009 (ip), vehicle: olive oil, sesame oil, peanut oil 98 % of control | dose: 25.0 mg/kg/injection, schedule: Q01DX009 (ip), vehicle: olive oil, sesame oil, peanut oil 100 % of control | dose: 50.0 mg/kg/injection, schedule: Q01DX009 (ip), vehicle: olive oil, sesame oil, peanut oil 100 % of control

CN1CCC(=C(C#N)C#N)CC1
inactive: dose: 25.0 mg/kg/injection, schedule: Q01DX009 (ip), vehicle: saline 103 % of control | dose: 50.0 mg/kg/injection, schedule: Q01DX009 (ip), vehicle: saline 94 % of control | dose: 100.0 mg/kg/injection, schedule: Q01DX009 (ip), vehicle: saline 96 % of control

CC(=O)Nc1ccc(/C=C/[N+](=O)[O-])cc1
inactive: dose: 75.0 mg/kg/injection, schedule: Q01DX001 (ip), vehicle: other 105 % of control | dose: 150.0 mg/kg/injection, schedule: Q01DX001 (ip), vehicle: other 108 % of control | dose: 300.0 mg/kg/injection, schedule: Q01DX001 (ip), vehicle: other 114 % of control

COc1ccc(CCNC(=O)Cc2ccccc2)cc1OC
inactive: [1] 103 % of control | [2] 94 % of control | [3] 91 % of control

CCOc1ccc2c(c1)C(C)=CC(C)(C)N2
inactive: [1] 95 % of control | [2] 104 % of control | [3] 91 % of control

COC(=O)c1ccccc1N=NNc1cccc(SC)c1
inactive: [4] 95 % of control | [5] 103 % of control | [6] 97 % of control

CCN(C(=O)Nc1ccccc1)c1ccccc1
inactive: dose: 75.0 mg/kg/injection, schedule: Q04DX003 (ip), vehicle: saline with Tween-80 98 % of control | dose: 150.0 mg/kg/injection, schedule: Q04DX003 (ip), vehicle: saline with Tween-80 98 % of control | dose: 300.0 mg/kg/injection, schedule: Q04DX003 (ip), vehicle: saline with Tween-80 106 % of control

Cc1cc(Cc2cc(C)c(O)c(C)c2)cc(C)c1O
inactive: [4] 94 % of control | [5] 100 % of control | [6] 97 % of control

C=CC1CCCCC1C=C (stereo not given)
inactive: [1] 110 % of control | [2] 102 % of control | [3] 100 % of control

NCC(=O)Nc1ccc(Cl)cc1C(=O)c1ccc[nH]1
inactive: dose: 100.0 mg/kg/injection, schedule: Q01DX001 (ip), vehicle: saline 89 % of control | dose: 100.0 mg/kg/injection, schedule: Q04DX003 (ip), vehicle: saline 94 % of control | dose: 200.0 mg/kg/injection, schedule: Q01DX001 (ip), vehicle: saline 89 % of control | dose: 200.0 mg/kg/injection, schedule: Q04DX003 (ip), vehicle: saline 94 % of control | dose: 400.0 mg/kg/injection, schedule: Q01DX001 (ip), vehicle: saline 92 % of control | dose: 400.0 mg/kg/injection, schedule: Q04DX003 (ip), vehicle: saline 96 % of control

NC(=O)c1cc(NCCN2CCCCC2)c([N+](=O)[O-])cc1[N+](=O)[O-]
inactive: dose: 100.0 mg/kg/injection, schedule: Q04DX002 (ip), vehicle: saline with Tween-80 95 % of control | dose: 200.0 mg/kg/injection, schedule: Q04DX002 (ip), vehicle: saline with Tween-80 95 % of control | dose: 400.0 mg/kg/injection, schedule: Q04DX002 (ip), vehicle: saline with Tween-80 95 % of control

COc1cc(NC(=O)CC(C)=O)cc(OC)c1OC
inactive: [5] 100 % of control | [1] 102 % of control | [6] 100 % of control | [2] 96 % of control | dose: 400.0 mg/kg/injection, schedule: Q01DX009 (ip), vehicle: saline with Tween-80 101 % of control | [3] 96 % of control

CN(C1=CC(=O)C(=O)c2ccccc21)c1ccccc1
inactive: dose: 75.0 mg/kg/injection, schedule: Q01DX001 (ip), vehicle: saline 97 % of control | dose: 150.0 mg/kg/injection, schedule: Q01DX001 (ip), vehicle: saline 95 % of control | dose: 300.0 mg/kg/injection, schedule: Q01DX001 (ip), vehicle: saline 100 % of control
